Experimental data reported in PMC2667214, “End-Tagging of Ultra-Short Antimicrobial Peptides by W/F Stretches to Facilitate Bacterial Killing” (PLoS ONE, 2009).
Residues, ends and D or L forms follow the SMILES beside them. No end group written: not given here.

Legend:
[1] = system: Escherichia coli ATCC 25922; type: cell-based; settings: ATCC 25922, 100
Procedure: (§1) Essentially as described earlier, [31] bacteria were grown to mid-logarithmic phase in 10 ml of full-strength (3% w/v) trypticase soy broth (TSB) (Becton-Dickinson, Cockeysville, USA). The microorganisms were then washed once with 10 mM Tris, pH 7.4. Subsequently, 4×10^6 bacterial colony forming units were added to 15 ml of the underlay agarose gel, consisting of 0.03% (w/v) TSB, 1% (w/v) low electroendosmosis type (EEO) agarose (Sigma-Aldrich, St. Louis, USA) and 0.02% (v/v) Tween 20 (Sigma-Aldrich, St. Louis, USA). The underlay was poured into a Ø 144 mm petri dish. After agarose solidification, 4 mm-diameter wells were punched and 6 µl of peptide with required concentration added to each well. Plates were incubated at 37°C for 3 hours to allow diffusion of the peptides. The underlay gel was then covered with 15 ml of molten overlay (6% TSB and 1% Low-EEO agarose in distilled H2O). […]
(§2) Figure 1 Antibacterial and hemolytic activity of peptides. (A) Antibacterial activity of PEPscreen peptides as assessed by radial diffusion assay (RDA) in the presence and absence of 0.15 M NaCl against E. coli ATCC 25922 and S. aureus ATCC 29213, as well as hemolysis. […] The absorbance of hemoglobin release was measured at 540 nm and is expressed as % of Triton X-100 induced hemolysis. […]

[2] = system: Staphylococcus aureus ATCC 29213; type: cell-based; settings: ATCC 29213, 100
Procedure: as §1, §2

S. aureus aureolysin = target: T1, S. aureus aureolysin (Staphylococcus aureus, UniProt P81177); type: in vitro ADME; settings: peptide 1 µg, aureolysin 0.1 µg, 30 µl, 3 hours 37°C, SDS-PAGE 16.5% Tris-Tricine, Coomassie
T1 construct: purchased BioCol GmbH (Potsdam, Germany)
T1 sequence (P81177 209-509): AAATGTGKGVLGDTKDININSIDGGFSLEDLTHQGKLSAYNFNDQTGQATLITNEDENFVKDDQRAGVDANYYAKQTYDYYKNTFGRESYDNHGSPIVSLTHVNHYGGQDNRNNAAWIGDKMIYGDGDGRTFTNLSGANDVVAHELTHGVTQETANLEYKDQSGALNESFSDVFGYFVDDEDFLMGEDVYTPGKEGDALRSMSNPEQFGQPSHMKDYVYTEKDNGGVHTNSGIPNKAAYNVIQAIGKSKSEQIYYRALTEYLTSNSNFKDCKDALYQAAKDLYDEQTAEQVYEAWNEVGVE
Procedure: (§3) Peptides (1 µg) were incubated at 37°C with S. aureus aureolysin (0.1 µg, 25000 units/mg), S. aureus V8 proteinase (0.1 µg, 2000 mU), both from BioCol GmbH (Potsdam, Germany), or neutrophil elastase (0.4 µg, 29 units/mg; Calbiochem (La Jolla, USA)) in a total volume of 30 µl for 3 hours. The materials were analyzed on 16.5% precast sodium dodecyl sulfate polyacrylamide (SDS-PAGE) Tris-Tricine gels (BioRad, Hercules, USA) and analyzed after staining with Coomassie Blue R-250 (Merck, Darmstadt, Germany).
(§4) Figure 5 (A) Protease sensitivity of peptides. KNK10 and KNK10-WWWWW were incubated with (+) or without (−) the S. aureus enzymes aureolysin (Aur), V8 proteinase (V8), or human leukocyte elastase (HLE), and analyzed by SDS-PAGE (16.5% Tris-Tricine gels). (B) Activities of peptides in an ex vivo skin infection model. Pig skin was inoculated with E. coli ATCC 25922 (upper panel) or S. aureus ATCC 29213 (lower panel). Peptides at 1 mM were added after an incubation time of 4 h. Bacteria were collected after 2 h and cfu determined (mean values are presented, n = 6). Note the logarithmic scale on the y-axis. (In Figure 5B, the difference between tagged and non-tagged peptide is statistically significant in all cases (P<0.002, one way ANOVA).)

S. aureus V8 proteinase = target: T2, S. aureus V8 proteinase (Staphylococcus aureus, UniProt P0C1U8); type: in vitro ADME; settings: peptide 1 µg, V8 proteinase 0.1 µg, 30 µl, 3 hours 37°C, SDS-PAGE 16.5% Tris-Tricine, Coomassie
T2 construct: purchased BioCol GmbH (Potsdam, Germany)
T2 sequence (P0C1U8 69-336): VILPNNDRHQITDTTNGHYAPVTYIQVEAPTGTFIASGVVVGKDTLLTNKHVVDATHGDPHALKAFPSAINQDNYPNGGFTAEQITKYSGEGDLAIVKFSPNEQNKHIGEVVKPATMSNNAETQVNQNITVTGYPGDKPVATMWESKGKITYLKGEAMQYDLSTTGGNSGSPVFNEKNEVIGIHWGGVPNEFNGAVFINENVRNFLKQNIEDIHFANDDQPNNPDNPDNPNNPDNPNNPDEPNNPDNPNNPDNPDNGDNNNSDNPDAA
Procedure: as §3, §4

human leukocyte elastase = target: T3, human leukocyte elastase (Homo sapiens, UniProt P08246); experiment: Protease sensitivity assay; type: in vitro ADME; settings: peptide 1 µg, neutrophil elastase 0.4 µg, 30 µl, 3 hours 37°C, SDS-PAGE 16.5% Tris-Tricine, Coomassie
T3 construct: purchased Calbiochem (La Jolla, USA)
T3 sequence (P08246 30-267): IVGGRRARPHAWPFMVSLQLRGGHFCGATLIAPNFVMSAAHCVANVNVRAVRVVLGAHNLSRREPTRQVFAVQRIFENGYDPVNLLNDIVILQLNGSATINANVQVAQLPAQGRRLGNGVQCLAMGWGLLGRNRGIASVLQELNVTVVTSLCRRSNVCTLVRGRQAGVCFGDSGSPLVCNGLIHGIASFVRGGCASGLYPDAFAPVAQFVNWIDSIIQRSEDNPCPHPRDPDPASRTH
Procedure: as §3, §4

Compound	clearance zone in RDA [1] [mm]	clearance zone in RDA [2] [mm]	stability against proteolytic degradation (in words) (S. aureus aureolysin)	stability against proteolytic degradation (in words) (S. aureus V8 proteinase)	stability against proteolytic degradation (in words) (human leukocyte elastase)
N[C@@H](Cc1c[nH]c2ccccc12)C(=O)N[C@@H](Cc1c[nH]c2ccccc12)C(=O)N[C@@H](Cc1c[nH]c2ccccc12)C(=O)O [WWW] (H-Trp-Trp-Trp-OH)	0	0			
KNKGKKNGKH [KNK10]			good stability	good stability	
KNKGKKNGKHWWWWW [KNK10-WWWWW]			good stability	good stability	
CC[C@H](C)[C@H](NC(=O)[C@H](CCCCN)NC(=O)[C@H](CCC(=O)O)NC(=O)[C@H](CCCCN)NC(=O)[C@H](CO)NC(=O)[C@H](CCCCN)NC(=O)[C@H](CCCNC(=N)N)NC(=O)[C@H](Cc1ccccc1)NC(=O)[C@H](Cc1ccccc1)NC(=O)[C@H](CC(=O)O)NC(=O)CNC(=O)[C@H](CC(C)C)NC(=O)[C@@H](N)CC(C)C)C(=O)NCC(=O)N[C@@H](CCCCN)C(=O)N[C@@H](CCC(=O)O)C(=O)N[C@@H](Cc1ccccc1)C(=O)N[C@@H](CCCCN)C(=O)N[C@@H](CCCNC(=N)N)C(=O)N[C@H](C(=O)N[C@H](C(=O)N[C@@H](CCC(N)=O)C(=O)N[C@@H](CCCNC(=N)N)C(=O)N[C@H](C(=O)N[C@@H](CCCCN)C(=O)N[C@@H](CC(=O)O)C(=O)N[C@@H](Cc1ccccc1)C(=O)N[C@@H](CC(C)C)C(=O)N[C@@H](CCCNC(=N)N)C(=O)N[C@@H](CC(N)=O)C(=O)N[C@@H](CC(C)C)C(=O)N[C@H](C(=O)N1CCC[C@H]1C(=O)N[C@@H](CCCNC(=N)N)C(=O)N[C@H](C(=O)N[C@@H](CCC(=O)O)C(=O)N[C@@H](CO)C(=O)O)[C@@H](C)O)C(C)C)[C@@H](C)CC)C(C)C)[C@@H](C)CC [LL-37]			substantial degradation	substantial degradation	substantial degradation
